# Values quoted from earlier work, collected in US20060040940A1, “Imidazopyridines pyrimidines and triazines for enhancing cognition as gaba-a-alphas 5 receoptor subtype ligands” (priority 2001, published 2006).
# Legend:
# [1] = system: benzodiazepine receptor; conditions: reported in Psychobiology, 21:101-108
# [2] = system: benzodiazepine receptor; conditions: background statement
smiles,measurement,setting,value
COC(=O)c1cc2c(cn1)[nH]c1ccccc12 [β-CCM],spatial learning in the Morris watermaze,[1],enhanced spatial learning
same,proconvulsant effect,[2],proconvulsant
